Patent US10233198B2, “Pro-drugs of NSAIAs with very high skin and membranes penetration rates and their new medicinal uses” (Techfields Pharma Co., Ltd., priority 2007, dated 2019)
Each block holds one compound with its values, some of them ahead of it.

Columns and labels:
Chinese White rabbits = test: Malassezia-induced psoriasis-like lesions; type: in vivo; conditions: 5% aqueous solution applied twice per day; 10 days after the application
Description: COX-1 and COX-2 play a very important role in animal immune-responses. NSAIAs inhibite COX-1 and COX-2. The pro-drugs of NSAIAs in this invention may be very useful for treating psoriasis, discoid lupus erythematosus, systemic lupus erythematosus (SLE), and other autoimmune diseases. Heavy suspensions of Malassezia [Rosenberg, E. W., et al., Mycopathologia, 72, 147-154 (1980)] were applied to the shaved skin on the backs of the Chinese white rabbits (n=4×6) twice (at 7 am and 7 pm) per day for 2 weeks, lesions similar to psoriasis resulted.

[1] = tested on: human breast cancer cells (BCAP-37); test: Anti-tumor activity, human breast cancer xenograft in nude mice, topical; conditions: day 42; 30 μl of 5% (1.5 mg) topically every 8 hours; BCAP-37 xenograft; in g (unit assumed)
Experimental: For evaluation of anti-tumor activity of the pro-drugs of NSAIAs, human breast cancer cells (BCAP-37, 2-3 mm^3 of tumor tissue was used in each mouse) were subcutaneously xenografted into nude mice (BALE, 12 groups, 7 mice each group). After 14 days, the tumors were growing to the size of 50±10 mm^3 (0.05 ml). Then 30 μl of 5% (equal to 1.5 mg of the pro-drugs) diethylaminoethyl acetylsalicylate.acetylsalicylic acid salt (P-1, in acetone); 1-piperidinepropyl 2[(2,6-dichlorophenyl)amino]benzene acetate.AcOH (P-2, in water), 1-pyrrolidinepropyl 2-(3-benzoylphenyl) propionate.AcOH (P-3, in water), 4-piperidinemethyl 2-(3-phenoxyphenyl)propionate.AcOH (P-4, in water), 3-piperidinemethyl 2-(ρ-isobutylphenyl) propionate.AcOH (P-5, in water), diethylaminoethyl 1-(p-chlorobenzoyl)-5-methoxy-2-methylindole 3-acetate.AcOH (P-11, in water), 2-(4-morpholinyl)ethyl (Z)-5-fluoro-2-methyl-1-[(4-methylsulfinyl) phenylmethylene]-1H-indene-3-acetate.AcOH (P-12, in water), diethylaminoethyl 2-(2,4-dichlorophenoxy)benzeneacetate.AcOH (P-19, in water), diethylaminoethyl 2-(8-methyl-10, 11-dihydro-11-oxodibenz(b,f)oxepin-2-yl)propionate.AcOH (P-37, in water), 1-pyrrolidinepropyl 2-[[(3-(trifluoromethyl)phenyl)amino]benzoate.AcOH (P-48, in water), 4-N,N-dimethylaminobutyryloxy-2-methyl-N-2-pyridinyl-2H,1,2-benzothiazine-3-carb oxamide 1,1-dioxide.HCl (P-51, in acetone) was topically applied to the human breast cancer cells-implanted area (near the front leg) every 8 hours.

[2] = tested on: human colon cancer cells (LS174J); test: Anti-tumor activity, human colon cancer xenograft in nude mice, topical; conditions: day 30, about 30 μl of 5% (1.5 mg) topically every 8 hours from day 7
Experimental: In the second anti-tumor experiment, human colon cancer cells (LS174J, 2-3 mm^3 of tumor tissue was used in each mouse) were subcutaneously xenografted into nude mice (BALB). After 7 days, the tumors were growing to the size of 55±10 mm^3 (0.055 ml). Then about 30 μl of 5% (equal to 1.5 mg of the pro-drugs) diethylaminoethyl acetylsalicylate.acetylsalicylic acid salt (P-1, in acetone); 1-piperidinepropyl 2[(2,6-dichlorophenyl)amino]benzene acetate.AcOH (P-2, in water), 1-pyrrolidinepropyl 2-(3-benzoylphenyl) propionate.AcOH (P-3, in water), 4-piperidinemethyl 2-(3-phenoxyphenyl)propionate.AcOH (P-4, in water), 3-piperidinemethyl 2-(ρ-isobutylphenyl) propionate.AcOH (P-5, in water), diethylaminoethyl 1-methyl-5-(4-methylbenzoyl)-1H-pyrrole-2-acetate.AcOH (P-13, in water), 2-(4-morpholinyl)ethyl 2-amino-3-benzoylbenzeneacetateAcOH (P-16, in water), diethylaminoethyl 2-(10,11-dihydro-10-oxodibenzo(b,f)thiepin-2-yl)propionate.AcOH (P-36), diethylaminoethyl 2-[(2,3-dimethylphenypamino]benzoate.AcOH (P-46, in water), diethylaminoethyl 2-[(2,6-dichloro-3-methylphenyl)amino]benzoate.AcOH (P47, in water), N-(2-thiazoyl)-4-N,N-dimethylaminobutyryloxy-2-methyl-2H,1,2-benzothiazine-3-car boxamide 1,1-dioxide.HCl (P-52, in acetone) was topically applied to the human colon cancer cells-implanted area (near the front leg) every 8 hours.

[3] = tested on: SLAC/GK rats, type 2 diabetes; test: Blood lipid levels in type 2 diabetic rats, oral with food; type: in vivo; conditions: for Triglycerides, Baseline: baseline of the treatment group
Description: The pH of stomach juice is 1-3. The negative charge on the phosphate head group of membrane is neutralized by the proton and the positive charge on the amino groups of these pro-drugs cannot bond to the phosphate head group of membranes, then the pro-drugs cannot pass through the wall of the stomach and will not hurt or upset the stomach. The pH of the duodenum is about 5-7 and the pro-drugs can pass through the mucosa of duodenum. The pancreas is nearby and large amount of the pro-drugs will enter there before going to the liver, kidneys, and the general circulation where the drug will be metabolized, so only very low dose of these pro-drugs are needed and very few and low side effects will be caused. The 20% acetone solution of diethylaminoethyl acetylsalicylate.acetylsalicylic acid salt (P-1, in acetone); 4-acetamidophenyl salicylyldimethylaminobutyrate.HCl (P-6), diethylaminoethyl 5-(2,4-difluorophenyl) acetylsalicylate.5-(2,4-difluorophenyl) acetylsalicylic acid salt (P-8), diethylaminoethyl salicylsalicylate.AcOH (P-9), diethylaminoethyl salicylate.AcOH (P-10), diethylaminoethyl 5-acetamido-acetylsalicylate (P-58), diethylaminoethyl acetylsalicylsalicylate. acetylsalicylsalicylic acid salt (P-59), diethylaminoethyl acetylsalicylsalicylate. acetylsalicylsalicylsalicylic acid salt (P-60) (equal to of 15 mg/kg of NSAIAs) were mixed with food and were orally administered to the rats (SLAC/GK, type 2 diabetes, n=7) with food every day for 5 weeks. The blood glucose levels were measured once every 3 days at 3 pm (no fasting) from the second week to the fifth week. The blood lipid levels were measured at the end of the fifth week.

[4] = tested on: SLAC:NOD-IDDM mice, type 1 diabetes; test: Blood glucose in type 1 diabetic mice, transdermal; type: in vivo; conditions: no fasting; for Blood glucose, type I diabetic mice, Baseline: baseline of the treatment group; for Blood glucose, type I diabetic mice, Average: transdermal, equal to 20 mg/kg of NSAIAs once per day for 7 weeks, fourth to seventh week
Description: The pro-drugs in this invention lower blood glucose levels in mouse models (SLAC:NOD-IDDM, type 1 diabetes, n=7). 20% acetone solution of diethylaminoethyl acetylsalicylate.acetylsalicylic acid salt (P-1, in acetone); 4-acetamidophenyl salicylyldimethylaminobutyrate.HCl (P-6), diethylaminoethyl 5-(2,4-difluorophenyl) acetylsalicylate.5-(2,4-difluorophenyl) acetylsalicylic acid salt (P-8), diethylaminoethyl salicylsalicylate.AcOH (P-9), diethylaminoethyl salicylate.AcOH (P-10), diethylaminoethyl 5-acetamido-acetylsalicylate (P-58), diethylaminoethyl acetylsalicylsalicylate. acetylsalicylsalicylic acid salt (P-59), diethylaminoethyl acetylsalicylsalicylate. acetylsalicylsalicylsalicylic acid salt (P-60) (equal to of 20 mg/kg of NSAIAs) were administered transdermally to the backs (about 1 cm^2) of mice (fur was shaved) once per day (at 8 am) for 7 weeks. The blood glucose levels were measured once every 3 days at 3 pm (no fasting) from the fourth week to the seventh week.

[5] = tested on: SLAC/GK rats, type 2 diabetes; test: Blood glucose in type 2 diabetic rats, transdermal; type: in vivo; conditions: no fasting; for Blood glucose, diabetic rats, Baseline: baseline of the treatment group
Description: (§1) The pro-drugs in this invention lower blood glucose levels in rat models (SLAC/GK, type 2 diabetes, n=7). 50% acetone solution of diethylaminoethyl acetylsalicylate.acetylsaficylic acid salt (P-1, in acetone); 4-acetamidophenyl salicylyldimethylaminobutyrate.HCl (P-6), diethylaminoethyl 5-(2,4-difluorophenyl) acetylsalicylate.5-(2,4-difluorophenyl) acetylsalicylic acid salt (P-8), diethylaminoethyl salicylsalicylate.AcOH (P-9), diethylaminoethyl salicylate.AcOH (P-10), diethylaminoethyl 5-acetamido-acetylsalicylate (P-58), diethylaminoethyl acetylsalicylsalicylate. acetylsalicylsalicylic acid salt (P-59), diethylaminoethyl acetylsalicylsalicylate. acetylsalicylsalicylsalicylic acid salt (P-60) (equal to of 20 mg/kg of NSAIAs) were administered transdermally to the backs (about 1.5 cm^2) of rats (fur was shaved) once per day (at 8 am) for 5 weeks. The blood glucose levels were measured once every 3 days at 4 pm (no fasting) from the second week to the fifth week. The blood lipid levels were measured at the end of the fifth week.

[6] = tested on: SLAC/GK rats, type 2 diabetes; test: Blood lipid levels in type 2 diabetic rats, transdermal; type: in vivo; conditions: for Cholesterol (total), Average: end of fifth week, transdermal, equal to 20 mg/kg of NSAIAs once per day
Description: as §1

normal rats = test: Blood glucose in normal rats, transdermal; type: in vivo; conditions: no fasting; for Blood glucose, normal rats, Average: transdermal, equal to 20 mg/kg of NSAIAs once per day for 5 weeks, second to fifth week
[7] = In vivo penetration through skin of intact rats; distribution in plasma and tissues; conditions: 4 hours after 20% parent drug in 1 ml ethanol on about 5 cm^2 of rat back; blood, liver, kidney, brain
[8] = end of fifth week, oral with food, equal to 15 mg/kg of NSAIAs every day
[9] = baseline of the treatment group

SMILES: CC(=O)O.CC(C)Cc1ccc(C(C)C(=O)OCC2CCCNC2)cc1 (stereo not drawn) [P-5, 3-piperidinemethyl 2-(ρ-isobutylphenyl) propionate.AcOH]
Psoriasis-like lesions (Chinese White rabbits): the lesions were resolved

SMILES: CC(=O)O.CCN(CC)CCOC(=O)Cc1c(C)n(C(=O)c2ccc(Cl)cc2)c2ccc(OC)cc12 [P-11, diethylaminoethyl 1-(p-chlorobenzoyl)-5-methoxy-2-methylindole 3-acetate.AcOH]
Weight of nude mice [1]: 21 ± 2

SMILES: CC(=O)O.CCN(CC)CCOC(=O)Cc1cc(C)c(C(=O)c2ccc(Cl)cc2)n1C [P-14, diethylaminoethyl 5-(4-Chlorobenzoyl)-1,4-dimethyl-1H-pyrrole-2-acetate.AcOH]
Psoriasis-like lesions (Chinese White rabbits): the lesions were resolved

SMILES: CC(=O)O.CCc1cccc2c3c([nH]c12)C(CC)(CC(=O)OCCN(CC)CC)OCC3 (stereo not drawn) [P-15, diethylaminoethyl 1,8-diethyl-1,3,4,9-tetrahydropyrano-[3,4-b]indole-1-acetate.AcOH]
Psoriasis-like lesions (Chinese White rabbits): the lesions were resolved

SMILES: CC(=O)O.CCN(CC)CCOC(=O)Cc1cccc(C(=O)c2ccc(Br)cc2)c1N [P-17, diethylaminoethyl 2-amino-3-(4-bromo-benzoyl)benzeneacetate.AcOH]
Psoriasis-like lesions (Chinese White rabbits): the lesions were resolved

SMILES: C=CCOc1ccc(CC(=O)OCCN(CC)CC)cc1Cl.CC(=O)O [P-18, diethylaminoethyl 3-chloro-4-(2-propenyloxy)benzeneacetate.AcOH]
Psoriasis-like lesions (Chinese White rabbits): the lesions were resolved

SMILES: CC(=O)O.CCN(CC)CCOC(=O)COC(=O)Cc1c(C)n(C(=O)c2ccc(Cl)cc2)c2ccc(OC)cc12 [P-20]
Psoriasis-like lesions (Chinese White rabbits): the lesions were resolved

SMILES: CC(=O)O.CCN(CC)CCOC(=O)Cc1sc(-c2ccccc2)nc1-c1ccc(Cl)cc1 [P-21, diethylaminoethyl 4-(4-chlorophenyl)-2-phenyl-5-thiazoleacetate.AcOH]
Psoriasis-like lesions (Chinese White rabbits): the lesions were resolved

SMILES: CC(=O)O.CCN(CC)CCOC(=O)Cc1cn(-c2ccccc2)nc1-c1ccc(Cl)cc1 [P-22, diethylaminoethyl 3-(4-chlorophenyl)-1-phenyl-1H-pyrazole-4-acetate.AcOH]
Psoriasis-like lesions (Chinese White rabbits): the lesions were resolved

SMILES: CC(=O)O.O=C(OCCCN1CCCC1)c1ccccc1Nc1cccc(C(F)(F)F)c1 [P-48]
Weight of nude mice [1]: 22 ± 3

SMILES: CN(C)CCCC(=O)OC1=C(C(=O)Nc2nccs2)N(C)S(=O)(=O)c2ccccc21.Cl [P-52, N-(2-thiazoyl)-4-N,N-dimethylaminobutyryloxy-2-methyl-2H,1,2-benzothiazine-3-car boxamide 1,1-dioxide.HCl]
Tumor size [2]: 690 ± 250 mm^3

SMILES: CCN(CC)CCOC(=O)c1cc(NC(C)=O)ccc1OC(C)=O [P-58, diethylaminoethyl 5-acetamido-acetylsalicylate]
Triglycerides, Baseline [3]: 5.9 ± 0.5 mmol/L
Cholesterol (total), Average [3, 8]: 4.9 ± 0.4 mmol/L
Triglycerides, Average [3, 8]: 2.8 ± 0.2 mmol/L
Blood glucose, type I diabetic mice, Baseline [4]: 27.1 ± 3 mmol/L
Blood glucose, type I diabetic mice, Average [4]: 7.9 ± 1 mmol/L
Blood glucose, diabetic rats, Baseline [5]: 17.1 ± 3 mmol/L
Cholesterol (total), Average [6]: 5.4 ± 0.4 mmol/L
Blood glucose, normal rats, Average (normal rats): 7.1 ± 1 mmol/L

SMILES: CC(=O)Oc1ccccc1C(=O)Oc1ccccc1C(=O)Oc1ccccc1C(=O)O.CCN(CC)CCOC(=O)c1ccccc1OC(=O)c1ccccc1OC(C)=O [P-60, diethylaminoethyl acetylsalicylsalicylate. acetylsalicylsalicylsalicylic acid salt]
Triglycerides, Baseline [3]: 6.2 ± 0.5 mmol/L
Cholesterol (total), Average [3, 8]: 5.0 ± 0.3 mmol/L
Blood glucose, type I diabetic mice, Baseline [4]: 25.5 ± 3 mmol/L
Blood glucose, type I diabetic mice, Average [4]: 8.6 ± 1 mmol/L
Blood glucose, diabetic rats, Baseline [5]: 15.5 ± 3 mmol/L
Blood glucose, diabetic rats, Average ([5]; transdermal, equal to 20 mg/kg of NSAIAs once per day for 5 weeks, measured every 3 days, second to fifth week): 8.6 ± 1 mmol/L
Triglycerides, Baseline [6, 9]: 5.7 ± 0.6 mmol/L
Cholesterol (total), Average [6]: 5.2 ± 0.3 mmol/L
Blood glucose, normal rats, Baseline (normal rats; [9]): 6.6 ± 1 mmol/L
Blood glucose, normal rats, Average (normal rats): 7.5 ± 1 mmol/L

Drug found in rat tissues or plasma after topical application of the parent drug itself [7]: None of these drugs was found
SMILES: CC(C(=O)O)c1cccc(C(=O)c2ccccc2)c1 (stereo not drawn) [ketoprofen, reference compound]
